Reference: the NIST ThermoML archive (doi:10.1016/j.fluid.2011.02.002)
Values joined by “and” are separate entries in the source; they are usually repeats but may differ in a detail not shown here. Equal values may be shown once. Numbers after ± are expanded uncertainties.

Assays:
[1] = Closed cell (Static) method
[2] = molar heat capacity at constant pressure; settings: 101.33 kPa, Liquid, Small sample (50 mg) DSC

C[S+](C)[O-] [dimethyl sulfoxide]
[1]
Settings	vapor or sublimation pressure
273.65 K, Crystal	0.00789 ± 0.00032 kPa
275.65 K, Crystal	0.00979 ± 0.0004 kPa
278.15 K, Crystal	0.01278 ± 0.00051 kPa and 0.01277 ± 0.00051 kPa and 0.01275 ± 0.00051 kPa
280.64 K, Crystal	0.01655 ± 0.00057 kPa
280.65 K, Crystal	0.01656 ± 0.00057 kPa
283.15 K, Crystal	0.02138 ± 0.00065 kPa and 0.02137 ± 0.00065 kPa
285.65 K, Crystal	0.02752 ± 0.00074 kPa and 0.02751 ± 0.00074 kPa
288.15 K, Crystal	0.03531 ± 0.00087 kPa and 0.03525 ± 0.00086 kPa
290.65 K, Crystal	0.04487 ± 0.001 kPa and 0.04486 ± 0.001 kPa
293.15 K, Liquid	0.05512 ± 0.0012 kPa and 0.05509 ± 0.0012 kPa and 0.0551 ± 0.0012 kPa
295.65 K, Liquid	0.06631 ± 0.0014 kPa and 0.06632 ± 0.0014 kPa and 0.06633 ± 0.0014 kPa
298.15 K, Liquid	0.07965 ± 0.0016 kPa and 0.07966 ± 0.0016 kPa and 0.07964 ± 0.0016 kPa
300.65 K, Liquid	0.09517 ± 0.0018 kPa and 0.09518 ± 0.0018 kPa
303.16 K, Liquid	0.1134 ± 0.0021 kPa
305.66 K, Liquid	0.1346 ± 0.0021 kPa
308.16 K, Liquid	0.1592 ± 0.0023 kPa

O=S1(=O)CCCC1 [sulfolane]
[2]
Settings	molar heat capacity at constant pressure
304.04 K	179.5 ± 4.4 J/K/mol and 179.9 ± 4.4 J/K/mol
309.14 K	181.3 ± 4.4 J/K/mol
309.15 K	181.6 ± 4.4 J/K/mol
314.25 K	182.6 ± 4.5 J/K/mol and 183.8 ± 4.5 J/K/mol
319.35 K	184.7 ± 4.5 J/K/mol and 184.5 ± 4.5 J/K/mol
324.46 K	185.3 ± 4.5 J/K/mol and 184.4 ± 4.5 J/K/mol
329.56 K	187.4 ± 4.6 J/K/mol and 186.6 ± 4.6 J/K/mol
334.66 K	188.7 ± 4.6 J/K/mol
334.67 K	187.9 ± 4.6 J/K/mol
339.77 K	189.7 ± 4.6 J/K/mol and 188.5 ± 4.6 J/K/mol
344.88 K	190.2 ± 4.7 J/K/mol
349.98 K	192.5 ± 4.7 J/K/mol and 192 ± 4.7 J/K/mol
355.09 K	193.4 ± 4.7 J/K/mol and 192.3 ± 4.7 J/K/mol

[1], Liquid
Settings	vapor or sublimation pressure
302.16 K	0.00146 ± 0.00012 kPa
303.17 K	0.00155 ± 0.00012 kPa and 0.00158 ± 0.00012 kPa
305.17 K	0.00188 ± 0.00013 kPa and 0.00187 ± 0.00013 kPa
306.17 K	0.00203 ± 0.00013 kPa
307.17 K	0.00223 ± 0.00014 kPa and 0.00224 ± 0.00014 kPa and 0.0022 ± 0.00014 kPa
308.17 K	0.00241 ± 0.00014 kPa and 0.0024 ± 0.00014 kPa
